Assay results as given in PMC8794153, “Access to highly specialized growth substrates and production of epithelial immunomodulatory metabolites determine survival of Haemophilus influenzae in human airway epithelial cells” (PLoS Pathogens, 2022).

Key:
[1] = system: LldD L-lactate dehydrogenase; conditions: read-out: KM_app; DCPIP 0.1 mM electron acceptor, PMS 0.25 mM, MgCl2 2 mM, phosphate pH 7.4, 37 °C
LdhA = system: T1, LdhA; assay: NADH oxidation at […] nm, cell-free extract; assay type: cell-based, Haemophilus influenzae; conditions: Tris-Cl pH 7.5, 37 °C
T1 construct: native soluble enzyme in cell-free extract of Hi2019; not purified; no tag

## C[C@H](O)C(=O)O [L-lactate]
[1]
  Km: 300 ± 30 µM

## NC(=O)C1=CN([C@@H]2O[C@H](COP(=O)(O)OP(=O)(O)OC[C@H]3O[C@@H](n4cnc5c(N)ncnc54)[C@H](O)[C@@H]3O)[C@@H](O)[C@H]2O)C=CC1 [NADH]
LdhA; pyruvate co-substrate (std. 10 mM)
  Km: 55 ± 3 µM

## CC(=O)C(=O)O [pyruvate]
LdhA; NADH co-substrate
  Km: 3380 ± 840 µM
